{
  "source": "ChEMBL document CHEMBL3886169",
  "about": "“Oxazine derivatives and their use in the treatment of disease” (2015)",
  "key": {"[1]": {"target": "Beta-secretase 1 (Homo sapiens, UniProt P56817)", "sequence (P56817 whole entry, the tested form may be a part)": "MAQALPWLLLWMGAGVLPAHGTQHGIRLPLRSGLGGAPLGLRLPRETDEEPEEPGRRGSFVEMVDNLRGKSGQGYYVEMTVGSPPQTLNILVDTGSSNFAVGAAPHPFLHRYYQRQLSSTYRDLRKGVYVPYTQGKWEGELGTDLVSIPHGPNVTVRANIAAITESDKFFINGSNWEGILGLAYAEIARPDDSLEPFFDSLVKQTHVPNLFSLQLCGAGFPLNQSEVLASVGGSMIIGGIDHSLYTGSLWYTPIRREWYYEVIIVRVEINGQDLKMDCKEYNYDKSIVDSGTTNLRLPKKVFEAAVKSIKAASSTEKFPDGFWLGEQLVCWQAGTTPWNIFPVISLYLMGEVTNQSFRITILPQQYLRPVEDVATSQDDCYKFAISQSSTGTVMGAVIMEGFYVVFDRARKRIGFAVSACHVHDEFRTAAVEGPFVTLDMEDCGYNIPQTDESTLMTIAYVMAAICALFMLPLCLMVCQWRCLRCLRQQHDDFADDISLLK", "experiment": "Inhibition Assay: Recombinant BACE-1 (extracellular domain, expressed in baculovirus and purified using standard methods) at 0.1 to 1 nM concentrations is incubated with the test compound at various concentrations for 1 hour at room temperature in 100 mM acetate buffer, pH 4.5, containing 0.1% CHAPS. Activity was measured using a final concentration of 3 μM of the fluorescence-quenched substrate Q-C(HSO3)-Ile-Asp-Leu-Ala-Val-Leu-Asp-HN-CH2-CH2-Mca, where Q=2-nitro-5-amino benzoic acid and Mca=7-methoxy-4-coumarinyl acetic acid. Catalytic turnover was monitored in a Spectramax Gemini fluorescence plate reader (Molecular Devices) in black 96-well microplates using excitation/emission wavelength of 325 nm and 400 nm, respectively. Fluorescence increase was followed for 15 min, in 1 minute's intervals. The fluorescence/time slopes were calculated from duplicate wells and from wells without inhibitor and the IC50 values were calculated using a logistic 4-parameter model."}, "[2]": {"target": "T1, Beta-secretase 2 (Homo sapiens, UniProt Q9Y5Z0)", "T1 sequence (Q9Y5Z0 whole entry)": "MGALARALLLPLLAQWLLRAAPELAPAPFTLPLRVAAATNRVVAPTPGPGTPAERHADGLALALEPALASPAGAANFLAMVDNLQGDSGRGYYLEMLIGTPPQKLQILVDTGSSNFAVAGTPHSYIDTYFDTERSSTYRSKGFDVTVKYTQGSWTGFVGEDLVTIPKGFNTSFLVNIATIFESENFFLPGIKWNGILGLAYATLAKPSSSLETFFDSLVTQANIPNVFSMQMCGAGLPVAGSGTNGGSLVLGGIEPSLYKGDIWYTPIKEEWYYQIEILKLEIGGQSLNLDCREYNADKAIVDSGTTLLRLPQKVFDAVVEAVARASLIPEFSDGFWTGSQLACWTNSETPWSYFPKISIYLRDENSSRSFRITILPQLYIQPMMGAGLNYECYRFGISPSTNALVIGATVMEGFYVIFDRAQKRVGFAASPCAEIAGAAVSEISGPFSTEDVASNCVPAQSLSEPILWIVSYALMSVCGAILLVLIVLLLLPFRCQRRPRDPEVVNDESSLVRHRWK", "experiment": "Fluorescence increase was followed for 15 min, in 1 minute's intervals. The fluorescence/time slopes were calculated from duplicate wells and from wells without inhibitor and the IC50 values were calculated using a logistic 4-parameter model."}},
  "data": [
    {"molecule": "COc1cnc(C(=O)Nc2ccc(F)c([C@@]3(C)N=C(N)OCC3(F)F)n2)c(C)c1", "values": [
      {"measurement": "IC50", "setting": "[1]", "result": 0.27, "unit": "µM"},
      {"measurement": "IC50", "setting": "[2]", "result": 0.093, "unit": "µM"}
    ]}
  ]
}
